Literature values, collected in patent US8394592B2, “Methods for assessing cancer susceptibility to carcinogens in tobacco products” (The Board of Regents of the University of Texas System, priority 2006, dated 2013).

Legend:
[1] = system: rats; conditions: cited from earlier work
[2] = system: Salmonella; conditions: Ames Salmonella assay; cited from earlier work

## CN(CCCC(=O)c1cccnc1)N=O [NNK, 4-(methylnitrosamino)-1-(3-pyridyl)-1-butanone]
[1]
  lowest dose shown to induce lung tumors: 1.8 mg
[2]
  mutagenicity: potent mutagen
